Laboratory results as given in US20090298757A1, “OXYNTOMODULIN ANALOGUES AND THEIR EFFECTS ON FEEDING BEHAVIOUR” (Imperial Innovations Limited, priority 2005, published 2009).
“Also recorded” adds a separate entry of the source. Non-standard residues stand in square brackets, D forms with d. No end group written: not given here. *: point of attachment. Lauroyl = CCCCCCCCCCCC(=O)*

Tested on: C57BL/6 mice
Experiment: Food intake in fasted mice after injection of peptide
Format: in vivo, mouse
Settings: for Multiples of food inhibition Factor: Example 9, food intake during the first hour after injection, activity relative to oxm (1400 nmol/kg); for potency relative to oxyntomodulin: as mentioned in the examples section, times that of oxyntomodulin
Experimental: Animals. All animal procedures were approved by the British Home Office Animals (Scientific Procedures) Act 1986 (Project License number 70/5516). Male C57BL/6 mice and male Wistar rats were maintained in individual cages under controlled temperature (21-23° C.) with ad libitum access to standard chow (RM1 diet, SDS Ltd, Witham, Essex, UK) and to water. The light cycle was 14 hours light and 10 hours dark with ‘dawn’ at 07:00, lights full on at 07:30, ‘dusk’ at 21:00 with lights off at 21:30. These times were fixed in the animal facility.
All animals were handled almost daily for on average nine days prior to the first study. During the acclimatization period, each animal received two saline injections at least two days apart in order to further acclimatize to the procedure on the study days.
Intra-peritoneal (IP) injections. IP injections were administered to mice via a 0.5 ml syringe with a 29-gauge needle (maximum injection volume 0.1 ml). Maximum volume administered IP was 0.1 ml.
Study protocol: C57BL/6 mice (20-35 g) were injected with the peptide under investigation following a 20-hour fast. Wistar rats were injected following a 24-hour fast. A pre-weighed quantity of chow was presented immediately after injection. The remaining food was measured at regular time intervals (e.g. 1, 2, 3, 4, 6, 8, 24 and 48 hours following injection) and food intake calculated.

[1] = Example 57, mice, 6 or 20 nmol/kg, vs saline
[2] = Example 6, mice, 2700 nmol/kg, 0-8 h
[3] = Example 7, mice, 1000 nmol/kg, 0-24 h
[4] = Example 1, fasted mice, 2700 nmol/kg by injection, intervals up to 32 h, vs saline and oxm
[5] = Example 11, mice, 100 nmol/kg, vs oxm(xx15-24)

**Q.** How did the food intake (Example 5, fasted mice, 2700 nmol/kg, 0-4 h, vs saline and oxm) turn out when “Ala2-oxm: oxm with Ser at residue 2 substituted by Ala (HAQGTFTSDYSKYLDSRRAQDFVQWLMNTKRNRNNIA; Oxyntomodulin; UniProt P01275 53-89, looked up, variant S2A)” was run?
**A.** does NOT significantly reduce food intake compared to saline

**Q.** Which “onset of anorectic effect” value (Example 14, mice, 1400 mmol/kg (so in the source)) does the source give for “CH3—CO—NH—CRH—CO-Ser Gln Gly Thr Phe Thr Ser Asp Tyr Ser Lys Tyr Leu Asp Ser Arg Arg Ala Gln Asp Phe Val Gln Trp Leu Met Asn Thr Lys Arg Asn Arg Asn Asn Ile Ala [Acetyloxyntomodulin]” here?
**A.** later acting than that of oxyntomodulin

**Q.** With “D-His Ala Gln Gly Thr Phe Thr Ser Asp Tyr Ser Lys Tyr Leu Asp Ser Arg Arg Ala Gln Asp Phe Val Gln Trp Leu Met Asn Thr Lys Arg Asn Arg Asn Asn Ile Ala (XAQGTFTSDYSKYLDSRRAQDFVQWLMNTKRNRNNIA; D-His at position 1; Oxm Analogue; D-His) [D-His-Ala2-oxm]” as the substance, how does the “Multiples of food inhibition Factor” value (mice) read?
**A.** 2.5

**Q.** What about the minimum effective dose (Example 43, mice, food intake) of the same substance?
**A.** approximately 250 nmol/kg

**Q.** What about the “effectiveness on food intake” value (Example 43, mice, various doses, vs oxm) of the same substance?
**A.** more effective than oxm

**Q.** For “D-His Ala Gln Gly Thr Phe Thr Ser Asp Tyr Ser Lys Tyr Leu Glu Glu Glu Ala Val Arg Leu Phe Ile Glu Trp Leu Lys Asn Gly Gly Pro Ser Ser Asn Asn Ile Ala ([dH]AQGTFTSDYSKYLEEEAVRLFIEWLKNGGPSSNNIA) [D-His1-Ala2-oxm(xx15-24)(xx27-33)]”, which “duration of effect on food intake” value (Example 8, mice, 100 mmol/kg (so in the source)) is on record?
**A.** especially long-acting

**Q.** And the “Multiples of food inhibition Factor” value (mice)?
**A.** 1000-4000

**Q.** What about the “potency relative to oxyntomodulin” value of the same substance?
**A.** 1-4000 times

**Q.** “D-His Ser Asp Gly Thr Phe Thr Ser Asp Tyr Ser Lys Tyr Leu Glu Glu Glu Val Val Arg Leu Phe Ile Gln Trp Leu Lys Asn Gly Gly Pro Ser Lys Asn Asn Ile Ala Ala Ala Glu Glu Lys-Lauroyl ([dH]SDGTFTSDYSKYLEEEVVRLFIQWLKNGGPSKNNIAAAEEK(Lauroyl))” was tested. Which cumulative food intake [1] did it give?
**A.** markedly decreased cumulative food intake in comparison to the saline control

**Q.** How did the cumulative food intake (Example 13, mice, 1000 nmol/kg (FIG. 21d)) turn out when “D-His Ser Gln Gly Thr Phe Thr Ser Asp Tyr Ser Lys Tyr Leu Asp Ser Arg Arg Ala Gln Asp Phe Val Gln Trp Leu Lys Asn Gly Gly Pro Ser Ser Gly Ala Pro Pro Pro Ser ([dH]SQGTFTSDYSKYLDSRRAQDFVQWLKNGGPSSGAPPPS) [D-His-oxm26ex]” was run?
**A.** reduction in food intake in comparison to oxm26ex

**Q.** “D-Ser Ala Asp Gly Thr Phe Thr Ser Asp Tyr Ser Lys Tyr Leu Glu Glu Glu Ala Val Arg Leu Phe Ile Gln Trp Leu Lys Asn Gly Gly Pro Ser Lys Asn Asn Ile Ala Ala Ala Glu Glu Lys-Lauroyl” was tested. Which cumulative food intake [1] did it give?
**A.** markedly decreased cumulative food intake in comparison to the saline control

**Q.** Which results are given for “Des-His-oxm: oxm analogue with substitution of the first amino acid (His 1) (SQGTFTSDYSKYLDSRRAQDFVQWLMNTKRNRNNIA; Oxyntomodulin; UniProt P01275 53-89, looked up, variant H1*)”?
**A.** food intake (Example 12, fasted mice, 2700 nmol/kg, 0-4 h): reduced food intake; duration of action on food intake (Example 12, fasted mice, 2700 nmol/kg, vs native oxm): more sustained action than native oxm

**Q.** With “HSQGTFTSDYSKYLDSRRAQDFVQWLKNGGPSSGAPPPS [oxm26ex]” as the substance, how does the food intake [2] read?
**A.** potent and long-lasting effect on food intake

**Q.** What about the food intake [3] of the same substance?
**A.** significantly inhibit feeding both compared to saline control and compared to the oxm-treated group

**Q.** What about the “duration of effect on food intake” value (Example 7, mice, 1000 nmol/kg, vs exendin) of the same substance?
**A.** not as long-lasting as those of exendin

**Q.** Which food intake [4] does the source give for “HSQGTFTSDYSKYLEEEAAQDFVQWLMNTKRNRNNIA [oxm(xx15-18)]” here?
**A.** increased and prolonged inhibition of food intake compared to both saline and oxm

**Q.** With “HSQGTFTSDYSKYLEEEAIRLFIEWLMNTKRNRNNIA [Ile19-oxm(xx15-24)]” as the substance, how does the “potency on food intake” value (Example 11, mice, 100 nmol/kg, 0-24 h, vs oxm(xx15-24)) read?
**A.** equipotent with or slightly more potent than oxm(xx15-24)

**Q.** What about the “onset and duration of activity on food intake” value [5] of the same substance?
**A.** slightly delayed action as compared with oxm (xx15-24)

**Q.** And the “onset and duration of activity on food intake” value (Example 11, mice, 100 nmol/kg, vs oxm(xx15-24), listed as SEQ ID NO: 34)?
**A.** delayed onset

**Q.** Which results are given for “HSQGTFTSDYSKYLEEEAVRLFIEWLMNTKRNRNNIA [oxm(xx15-24)]”?
**A.** food intake [4]: greater and more prolonged appetite suppressant effect; also recorded: more potent effect on feeding than oxm; cumulative food intake (Example 2, mice, 300 nmol/kg, first 8 hours post-injection (FIG. 4c)): reduces food intake only slightly less than exendin over the first 8 hours post-injection; Multiples of food inhibition Factor (mice): 400; food intake (Example 27, mice, 100 nmol/kg): most effective; potency relative to oxyntomodulin: 400 times

**Q.** “HSQGTFTSDYSKYLEEEAVRLFVQWLMNTKRNRNNIA [oxm(xx15-21)]” was tested. Which food intake [4] did it give?
**A.** greater and more prolonged appetite suppressant effect

**Q.** What about the “Multiples of food inhibition Factor” value (mice) of the same substance?
**A.** 200

**Q.** What about the “potency relative to oxyntomodulin” value of the same substance?
**A.** 200 times

**Q.** What does the source list for “HSQGTFTSDYSKYLEEEVVRLFIEWLMNTKRNRNNIA [18Val-oxm(xx15-24)]”?
**A.** onset and duration of activity on food intake [5]: delayed onset of activity as compared with oxm(xx15-24) whilst the activity is more prolonged; onset and duration of activity on food intake (Example 11, mice, 100 nmol/kg, vs oxm(xx15-24), listed as SEQ ID NO: 31): delayed onset

**Q.** HSQGTFTSDYSKYLEEEVVRLFVQWLMNTKRNRNNIA was tested. Which food intake (Example 16, mice, 30 nmol/kg) did it give?
**A.** reduction in food intake from 0 to 2 hours

**Q.** “His Ser Gln Gly Thr Phe Thr Ser Asp Tyr Ser Lys Tyr Leu Asp Ser Arg Arg Ala Gln Asp Phe Val Gln Trp Leu Arg Asn Gly Gly Pro Ser Ser Asn Asn Ile Ala (HSQGTFTSDYSKYLDSRRAQDFVQWLRNGGPSSNNIA; Arg27-oxm(ex27-33))” was tested. Which food intake (Example 17, mice, 300 nmol/kg) did it give?
**A.** reduction in food intake from 0 to 1 hours

**Q.** What about the food intake (Example 30, mice, 1400 or 300 nmol/kg, vs oxm(ex27-33)) of the same substance?
**A.** reduce the effect of oxm(ex27-33) on food intake

**Q.** For “His Ser Gln Gly Thr Phe Thr Ser Asp Tyr Ser Lys Tyr Leu Asp Ser Arg Arg Ala Gln Asp Phe Val Gln Trp Leu Lys Asn Gly Gly Pro Asn Ser Asn Asn Ile Ala (HSQGTFTSDYSKYLDSRRAQDFVQWLKNGGPNSNNIA; Asn32-oxm(ex27-33))”, which food intake (Example 31, mice, 300 nmol/kg, vs oxm(ex27-33)) is on record?
**A.** reduces the effect of oxm(ex27-33) on food intake

**Q.** How did the food intake (Example 3, mice, 2700 nmol/kg, vs saline and oxm) turn out when “His Ser Gln Gly Thr Phe Thr Ser Asp Tyr Ser Lys Tyr Leu Asp Ser Arg Arg Ala Gln Asp Phe Val Gln Trp Leu Lys Asn Gly Gly Pro Ser Ser Asn Asn Ile Ala (HSQGTFTSDYSKYLDSRRAQDFVQWLKNGGPSSNNIA; Oxm Analogue) [oxm(xx27-33)]” was run?
**A.** increased and prolonged inhibition of food intake compared to both saline and oxm

**Q.** What about the “Multiples of food inhibition Factor” value (mice) of the same substance?
**A.** 7

**Q.** Which food intake [2] does the source give for “His Ser Gln Gly Thr Phe Thr Ser Asp Tyr Ser Lys Tyr Leu Glu Glu Glu Ala Val Arg Leu Phe Ile Glu Trp Leu Lys Asn Gly Gly Pro Ser Ser Gly Ala Pro Pro Pro Ser [oxm(xx15-39)]” here?
**A.** potent and long-lasting effect on food intake

**Q.** What about the food intake [3] of the same substance?
**A.** significantly inhibit feeding both compared to saline control and compared to the oxm-treated group
